Laboratory results as given in PubChem BioAssay (NCI).
Values joined by “and” are separate entries in the source; they are usually repeats but may differ in a detail not shown here. Identical values can stand only once.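 All cell lines were grown in 96-well plates and treated with compound for 48 hours. GI50: concentration for 50% inhibition of growth. The concentration for full growth arrest is given as TGI.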

What was measured:
Experiment in all cases: NCI tumour cell line growth inhibition, 48 h
XF 498 CNS = test system: XF 498 CNS
CAKI-1 renal = test system: CAKI-1 renal
LXFL 529 NSCLC = test system: LXFL 529 NSCLC
SF-539 CNS = test system: SF-539 CNS
SNB-19 CNS = test system: SNB-19 CNS
MOLT-4 leukemia = test system: MOLT-4 leukemia
COLO 205 colon = test system: COLO 205 colon
TK-10 renal = test system: TK-10 renal
UO-31 renal = test system: UO-31 renal
RPMI-8226 leukemia = test system: RPMI-8226 leukemia

Row | SMILES | TGI (XF 498 CNS) [µM] | TGI (CAKI-1 renal) [µM] | TGI (LXFL 529 NSCLC) [µM] | GI50 (SF-539 CNS) [µM] | TGI (SF-539 CNS) | GI50 (SNB-19 CNS) [µM] | TGI (SNB-19 CNS) | GI50 (MOLT-4 leukemia) [µM] | TGI (MOLT-4 leukemia) | TGI (COLO 205 colon) | GI50 (TK-10 renal) [µM] | TGI (TK-10 renal) | GI50 (UO-31 renal) [µM] | TGI (UO-31 renal) | TGI (RPMI-8226 leukemia) | GI50 (CAKI-1 renal) [µM] | GI50 (RPMI-8226 leukemia) [µM] | GI50 (COLO 205 colon) [µM] | GI50 (LXFL 529 NSCLC) [µM]
1 | O=c1cc(-c2cccc(F)c2)[nH]c2cc3c(cc12)OCO3 | 75 | > 53.3 | 75 | 0.133 | 0.301 µM and 0.247 µM | 0.324 | 75 µM and > 45.3 µM | 0.799 | 75 µM and > 16.8 µM | 0.364 µM | 4.71 | 75 µM and 44 µM | 0.47 | 75 µM and > 63.4 µM |  |  |  |  | 
2 | O=c1[nH]c2ccccc2cc1C(Cl)=C(Cl)Cl | > 100 | > 100 | > 100 |  | > 100 µM |  | > 100 µM |  | > 100 µM | > 100 µM |  | > 100 µM |  | > 100 µM | > 100 µM |  |  |  | 
3 | CCOC(=O)CC1=Nc2ccccc2SC1 | > 100 | > 100 | > 100 |  | > 100 µM |  | > 100 µM |  | > 100 µM | > 100 µM |  | > 100 µM |  | > 100 µM |  |  |  |  | 
4 | Cn1cc(NC(=O)c2cc(NC(=O)CCCCCCCCCCC(=O)Nc3cc(C(=O)Nc4cc(C(=O)NCCC(=N)N)n(C)c4)n(C)c3)cn2C)cc1C(=O)NCCC(=N)N | > 100 | > 100 | > 100 |  | > 100 µM |  | > 100 µM |  | > 100 µM | > 100 µM |  | 87.9 µM |  | > 100 µM |  |  |  |  | 
5 | CCCCCCCCCCCCCCCC(=O)NCC(COP(=O)([O-])OCC[N+](C)(C)C)OCC (centres undefined) | 25.5 | 35.2 | 27.8 |  | 29.8 µM |  | 11 µM |  | 10.1 µM | 5.1 µM |  | 3.95 µM |  | 32.9 µM | 9.76 µM |  |  |  | 
6 | CCCCCCCCCCCCC(=O)OC(c1cnco1)c1nc(C(O)CC(O)C(O)C(C)O)co1 (centres undefined) | > 100 | > 55.3 | > 100 | 3.73 | > 100 µM |  | > 100 µM | 0.537 | 5.14 µM | 1.98 µM and 3.52 µM | 5.04 | > 76.5 µM | 5.77 | > 100 µM | 29.2 µM | 4.96 | 0.694 | 0.587 | 
7 | N#CC1(c2nc3ccccc3o2)C(=O)C(=O)N(C2C3CC4CC(C3)CC2C4)C(=O)C1=O (centres undefined) | > 100 | > 100 | > 100 |  | > 100 µM |  | > 100 µM |  | > 100 µM | > 100 µM |  | > 100 µM |  | > 100 µM | > 100 µM |  |  |  | 
8 | FC(F)(F)c1nc(-c2ccccc2Cl)[nH]c1C(F)(F)F | 1.54 | 1.65 | 3.73 |  | 4.48 µM |  | 8.27 µM |  | > 29.5 µM | 0.971 µM |  | 14.5 µM |  | 2.15 µM | 25.2 µM |  |  |  | 
9 | C#CCNC(=O)NC(CCCNC(=O)OCc1ccccc1)C(=O)OCc1ccccc1 (centres undefined) | 26.9 | 87.5 | > 100 |  | > 100 µM |  | > 100 µM |  | > 100 µM | > 100 µM |  | > 100 µM |  | > 100 µM | > 100 µM |  |  |  | 
10 | COC(=O)C(=O)CC(=O)CCn1ncc(Cl)c(Cl)c1=O | 44.6 | 9.42 | 24.2 |  | 35.2 µM |  | 32.5 µM |  | 22.1 µM | 31.8 µM |  | > 85.5 µM |  | 34.7 µM | 52.6 µM |  |  |  | 
11 | COc1ccc2cc1Oc1ccc(cc1)C[C@H]1c3cc(c(OC)cc3CCN1C)Oc1c(OC)c(OC)cc3c1[C@H](C2)N(C)CC3 | 18.1 |  |  | 2.03 |  | 7.55 | 13 µM and 20.1 µM and 60.6 µM |  |  |  | 12.7 | 15.6 µM and 25.2 µM and 53.5 µM |  |  | 20.3 µM and 5.21 µM |  | 1.92 |  | 
12 | CC(=O)[CH-]C(=O)c1ccccc1.CC(=O)[CH-]C(=O)c1ccccc1.CCCCCCCCCCCCCCCCCC(=O)[O-].CCCCCCCCCCCCCCCCCC(=O)[O-].[Ti+4] |  | 39.9 | 34.6 | 17.2 | 31.3 µM | 17.5 | 33.6 µM | 21.7 | 62 µM | > 100 µM | 34.8 | 99.1 µM | 13.8 | 26.7 µM | 55.4 µM | 19.8 | 21.6 | 87.4 | 18
13 | COC(=O)C(c1[nH]nc2ccccc12)C(C(=O)OC)c1[nH]nc2ccccc12 (centres undefined) | > 100 |  | > 100 |  | 44.9 µM |  | > 100 µM |  | 82.5 µM |  |  | > 100 µM |  | > 100 µM | 50.4 µM |  |  |  | 
14 | CCOC(=O)C1(CC)CCCCC(=O)N1 (centres undefined) | > 100 | > 100 | > 100 |  |  |  |  |  |  | > 100 µM |  | > 100 µM |  | > 100 µM |  |  |  |  | 
